Patent US8350048B2, “Amide compounds as boosters of antivirals” (Janssen R&D Ireland, priority 2007, dated 2013)
Like-named read-outs stand apart in the source and are kept apart here.

Experiments:
[1] = test system: wild-type HIV-1IIIB strain; test: Antiviral activity, MT4 LTR-EGFP cellular assay; assay type: cell-based; set-up: key to Antiviral activity IIIB (pEC50): pEC50 = -log10(EC50); conditions: for EC50: read-out: Antiviral activity IIIB (pEC50) (converted)
Procedure: (§1) Assay 1 &2: Antiviral Activity/Toxicity
The compounds of the present invention were tested for antiviral activity in a cellular assay, which was performed according to the following procedure.
The human T-cell line MT4 is engineered with Green Fluorescent Protein (GFP) and an HIV-specific promoter, HIV-1 long terminal repeat (LTR). This cell line is designated MT4 LTR-EGFP, and can be used for the in vitro evaluation of anti-HIV activity of investigational compounds. In HIV-1 infected cells, the Tat protein is produced which upregulates the LTR promotor and finally leads to stimulation of the GFP reporter production, allowing measuring ongoing HIV-infection fluorometrically.
(§2) The ratio of CC50 to EC50 is defined as the selectivity index (SI) and is an indication of the selectivity of the anti-HIV activity of the inhibitor. The ultimate monitoring of HIV-1 infection and cytotoxicity is done using a scanning microscope. Image analysis allows very sensitive detection of viral infection. Measurements are done before cell necrosis, which usually takes place about five days after infection, in particular measurements are performed three days after infection.
(§3) A pEC50 value corresponds to −log10(EC50). A pCC50 value corresponds to −log10(CC50).

[2] = Toxicity, mock-infected MT4 CMV-EGFP cells; assay type: cell-based, human; conditions: human
Description: as §1
(§4) Analogously, MT4 cells are engineered with GFP and the constitutional cytomegalovirus (CMV) promotor. […] Cytotoxic investigational compounds reduce GFP levels of mock-infected MT4 CMV-EGFP cells.
as §2, §3

[3] = Metabolic stability of test compounds (HLM15'); assay type: in vitro ADME, human; conditions: for recovery at 15 min, 5 μM: read-out: Metabolic stability (HLM, % recovery after 15')
Description: Human liver tissue is rinsed in ice-cold 0.1 M Tris-HCl (pH 7.4) buffer to wash excess blood. Tissue is then blotted dry, weighed and chopped coarsely using surgical scissors. The tissue pieces are homogenized in 3 volumes of ice-cold 0.1 M phosphate buffer (pH 7.4) using either a Potter-S (Braun, Italy) equipped with a Teflon pestle or a Sorvall Omni-Mix homogenizer, for 7×10 sec. In both cases, the vessel is kept in/on ice during the homogenization process. Tissue homogenates are centrifuged at 9000×g for 20 min at 4° C. using a Sorvall centrifuge or Beckman Ultracentrifuge. The resulting supernatant can be stored at −80° C. and is designated ‘S9’. The S9 fraction is centrifuged at 100,000×g for 60 min at 4° C. using a Beckman ultracentrifuge. The resulting supernatant is carefully aspirated, aliquoted and designated ‘cytosol’. The pellet is re-suspended in 0.1 M phosphate buffer (pH 7.4) in a final volume of 1 ml per 0.5 g original tissue weight and designated ‘microsomes’. All sub-cellular fractions are aliquoted, immediately frozen in liquid nitrogen and stored at −80° C. until use.
Heat-inactivated (10 min at 95° C.) ‘S9’ or microsomes were used for blank experiments. […] The reaction was incubated for 0 or 15 min. Next, the reaction was stopped by addition of 2 volumes of DMSO (or acetonitrile). Samples were centrifuged (10 min, 900×g) and analyzed by LC-MS.

[4] = test system: MT4 CMV-EGFP cells; test: Toxicity, mock-infected MT4 CMV-EGFP cells; assay type: cell-based, human
Description: as §1, §4, §2, §3

[5] = molecular target: CYP2C9 (Homo sapiens, UniProt P11712); test: in vitro
Description: Assay 4: CYP450 Inhibition

[6] = molecular target: CYP2D6 (Homo sapiens, UniProt P10635); test: in vitro; conditions: pH 7.4
Procedure: (§5) Inhibition of the metabolism of test compounds by different CYP P450 isoenzymes was determined using E. coli expressed proteins (3A4, 2C9, 2D6, 1A2, and 2C19) that convert their specific substrates into a fluorescent molecule (Table 6). This fluorescent molecule was measured using a fluorescent plate reader (Victor2 (Wallac) or Fluoroskan (Labsystems)). […] CYP P450 enzymes were prepared in house or commercially bought and stored at −80° C.
(§6) The assay was performed in black 96 well Costar plates. Test compounds were added to a CYP P450 enzyme solution in the presence of an NADPH generating system. After 5 min of preincubation at 37° C., the freshly prepared, phosphate buffered (pH 7.4) substrate solution was added. Known CYP P450 inhibitors were used as positive controls, negative controls were run without CYP P450 enzyme. […] Reaction mixtures were incubated at 37° C. for 30 min (CYP3A4-BFC), 30 min (CYP3A4-BQ), 10 min (CYP3A4-DBF), 15 min (CYP1A2-CEC), 30 min (CYP2C9-MFC, CYP2C19-CEC), or 45 min (CYP2D6-AMMC), respectively. Then, the reaction was stopped by the addition of 200 μl acetonitrile, and the fluorescent signal was detected.
(§7) Calculation of CYP P450 isoenzyme inhibition (% inh.):
(§8) % activity=(100/(average positive control−average negative control))×(average sample−average negative control)

[7] = molecular target: CYP2C19 (Homo sapiens, UniProt P33261); test: in vitro; conditions: E. coli expressed CYP2C19, pH 7.4, probe CEC 25 μM
Procedure: as §5, §6, §7, §8

[8] = Human immunodeficiency virus 1, 72 h, wild-type HIV-1 IIIB, MT4 LTR-EGFP cells, three days after infection
[9] = pH 7.4, human liver microsomes 1 mg/ml, 5 μM test compound, 15 min
[10] = wild-type HIV-1 IIIB, MT4 LTR-EGFP cells, three days after infection
[11] = human liver microsomes 1 mg/ml, 5 μM test compound, 15 min
[12] = Human immunodeficiency virus 1, IIIB, 72 h
[13] = mock-infected MT4 CMV-EGFP cells, read-out: Toxicity MT4 (pCC50) (converted)

Sequence of CYP2D6 (P10635 whole entry): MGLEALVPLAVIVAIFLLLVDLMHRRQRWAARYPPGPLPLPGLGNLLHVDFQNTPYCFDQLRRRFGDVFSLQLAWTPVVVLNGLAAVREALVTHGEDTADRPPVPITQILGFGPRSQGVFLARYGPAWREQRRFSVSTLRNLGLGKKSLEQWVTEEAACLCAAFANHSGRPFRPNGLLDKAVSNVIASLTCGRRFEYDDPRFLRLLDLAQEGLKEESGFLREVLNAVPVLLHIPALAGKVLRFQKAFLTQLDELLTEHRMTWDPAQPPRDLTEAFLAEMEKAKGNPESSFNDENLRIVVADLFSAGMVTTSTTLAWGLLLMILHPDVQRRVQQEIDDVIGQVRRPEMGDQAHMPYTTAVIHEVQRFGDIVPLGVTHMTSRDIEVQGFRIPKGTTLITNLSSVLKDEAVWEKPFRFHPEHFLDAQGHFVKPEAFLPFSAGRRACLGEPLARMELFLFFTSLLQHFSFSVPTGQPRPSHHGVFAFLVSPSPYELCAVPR
Sequence of CYP2C9 (P11712 whole entry): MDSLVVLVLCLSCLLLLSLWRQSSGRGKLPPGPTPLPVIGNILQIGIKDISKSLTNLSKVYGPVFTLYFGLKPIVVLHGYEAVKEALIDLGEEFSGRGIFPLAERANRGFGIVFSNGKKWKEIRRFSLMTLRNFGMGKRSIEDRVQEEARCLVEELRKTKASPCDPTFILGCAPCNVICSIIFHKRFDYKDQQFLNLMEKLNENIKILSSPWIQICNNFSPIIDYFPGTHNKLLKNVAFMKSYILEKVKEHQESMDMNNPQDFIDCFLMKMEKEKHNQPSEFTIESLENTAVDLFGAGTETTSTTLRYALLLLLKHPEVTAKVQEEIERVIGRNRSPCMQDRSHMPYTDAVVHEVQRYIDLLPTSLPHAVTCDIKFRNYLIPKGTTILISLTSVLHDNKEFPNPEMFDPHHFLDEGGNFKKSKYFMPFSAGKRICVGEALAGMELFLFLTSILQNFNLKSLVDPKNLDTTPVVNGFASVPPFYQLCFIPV
Sequence of CYP2C19 (P33261 whole entry): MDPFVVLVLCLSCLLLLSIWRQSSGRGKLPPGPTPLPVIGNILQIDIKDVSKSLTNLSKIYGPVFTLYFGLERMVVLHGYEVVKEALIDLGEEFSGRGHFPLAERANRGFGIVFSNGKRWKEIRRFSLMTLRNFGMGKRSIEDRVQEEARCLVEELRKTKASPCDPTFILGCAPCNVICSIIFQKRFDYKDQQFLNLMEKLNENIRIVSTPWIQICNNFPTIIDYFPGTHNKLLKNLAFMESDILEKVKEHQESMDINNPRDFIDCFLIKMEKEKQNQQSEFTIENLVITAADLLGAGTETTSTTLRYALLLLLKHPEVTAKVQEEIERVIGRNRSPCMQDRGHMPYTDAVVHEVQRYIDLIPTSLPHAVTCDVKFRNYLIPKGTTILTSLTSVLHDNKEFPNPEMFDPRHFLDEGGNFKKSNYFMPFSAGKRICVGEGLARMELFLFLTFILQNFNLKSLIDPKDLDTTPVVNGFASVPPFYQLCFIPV

Structure (SMILES) | Antiviral activity IIIB (pEC50) [1, 10] | Metabolic stability (HLM, % recovery after 15') [3, 11] [%] | Cyp450 inhibition: CDNA-CYP2C9-MFC (% inhibition) [5] [%] | Toxicity MT4 (pCC50) [4] | also measured
CCN(C)c1nc2ccc(C(=O)N(CC(C)C)C[C@@H](O)[C@H](Cc3ccccc3)NC(=O)OCc3cncs3)cc2o1 [Compound C1, Thiazol-5-ylmethyl (2S,3R)-4-(2-(ethyl(methyl)amino)-N-isobutylbenzo[d]-oxazole-6-carboxamido)-3-hydroxy-1-phenylbutan-2-ylcarbamate] | – | – | – | – | EC50 [1, 8]: 70.8 µM; CC50 at 3 days [2]: > 81.3 µM; recovery at 15 min, 5 μM [3, 9]: 71%
CC(C)CN(C[C@@H](O)[C@H](Cc1ccccc1)NC(=O)OCc1cncs1)C(=O)c1ccc2nc(N3CCOCC3)oc2c1 [Compound C5] | <4.00 | 67 | 95 | =4.06 | –
CCN(C)c1nc2ccc(C(=O)N(CC(C)C)C[C@@H](O)[C@H](Cc3ccccc3)NC(=O)OCc3cccnc3)cc2o1 [Compound C9] | =4.32 | 65 | 91 | =4.24 | –
CCN(C)c1nc2ccc(C(=O)N(CCN3CCCC3)C[C@@H](O)[C@H](Cc3ccccc3)NC(=O)OCc3cncs3)cc2o1 [Compound C12] | <4.00 | 69 | 34 | <4.00 | –
CC(C)CN(C[C@@H](O)[C@H](Cc1ccccc1)NC(=O)OCc1cncs1)C(=O)c1ccc2ncn(C(C)C)c2c1 [Compound C14] | <4.00 | 60 | 93 | <4.00 | –
CC(C)CN(C[C@@H](O)[C@H](Cc1ccccc1)NC(=O)OCc1cncs1)C(=O)c1ccc2nc(N)oc2c1 [Compound C22] | – | – | – | <4.00 | Antiviral activity IIIB (pEC50) [1]: <4.00; Metabolic stability (HLM, % recovery after 15') [3]: 72%
CC(C)CN(C[C@@H](O)[C@H](Cc1ccccc1)NC(=O)OCc1cncs1)C(=O)c1ccc2nc(N(C)CCN(C)C)oc2c1 [Compound C24] | – | – | – | <4.00 | Antiviral activity IIIB (pEC50) [1]: =4.20; Metabolic stability (HLM, % recovery after 15') [3]: 57%
CCN(C[C@@H](O)[C@H](Cc1ccccc1)NC(=O)OCc1cncs1)C(=O)c1ccc2nc(N3CCCC3)oc2c1 [Compound C30, Thiazol-5-ylmethyl (2S,3R)-4-(N-ethyl-2-(pyrrolidin-1-yl)benzo[d]oxazole-6-carboxamido)-3-hydroxy-1-phenylbutan-2-ylcarbamate] | – | – | – | – | EC50 [1, 12]: 69.2 µM; CC50 [2]: 72.4 µM; recovery ([3]; human, pH 7.4): 80%
O=C(N[C@@H](Cc1ccccc1)[C@H](O)CN(CC1CCCCC1)C(=O)c1ccc2nc(N3CCCC3)oc2c1)OCc1cncs1 [Compound C31, Thiazol-5-ylmethyl (2S,3R)-4-(N-(cyclohexylmethyl)-2-(pyrrolidin-1-yl)-benzo[d]oxazole-6-carboxamido)-3-hydroxy-1-phenylbutan-2-ylcarbamate] | – | – | – | – | EC50 [1, 12]: 27.5 µM; CC50 at 3 days [2, 13]: 21.9 µM; recovery at 15 min, 5 μM [3, 9]: 59%; inhibition at 45 min, 10 μM [6]: 78%; inhibition at 30 min, 10 μM [7]: 104%
CCN(C)c1nc2ccc(C(=O)N(CC(C)C)C[C@@H](O)[C@H](Cc3ccccc3)NC(=O)OCc3ccc4c(c3)OCO4)cc2o1 [Compound C36] | =4.79 | 62 | 84 | =4.57 | –
CC(C)CN(C[C@@H](O)[C@H](Cc1ccccc1)NC(=O)OCc1cncs1)C(=O)c1ccc2nc(C(C)C)oc2c1 [Compound C45, Thiazol-5-ylmethyl (2S,3R)-3-hydroxy-4-(N-isobutyl-2-isopropylbenzo[d]-oxazole-6-carboxamido)-1-phenylbutan-2-ylcarbamate] | – | – | – | – | EC50 [1, 8]: 44.7 µM; CC50 at 3 days [2, 13]: 42.7 µM; recovery at 15 min, 5 μM [3, 9]: 68%; inhibition at 45 min, 10 μM [6]: 44%; inhibition at 30 min, 10 μM [7]: 89%
C#CCN(C)c1nc2ccc(C(=O)N(CC(C)C)C[C@@H](O)[C@H](Cc3ccccc3)NC(=O)OCc3cncs3)cc2o1 [Compound C50] | =4.32 | 72 | – | – | Toxicity MT4 (pCC50) ([4]; mock-infected MT4 CMV-EGFP cells): =4.32
CC(C)CN(C[C@H](O)[C@H](Cc1ccccc1)NC(=O)OCc1cncs1)C(=O)c1ccc2nc(N3CCCC3)oc2c1 [Compound C51, Thiazol-5-ylmethyl (2S,3S)-3-hydroxy-4-(N-isobutyl-2-(pyrrolidin-1-yl)-benzo[d]oxazole-6-carboxamido)-1-phenylbutan-2-ylcarbamate] | – | – | – | – | EC50 [1, 8]: 44.7 µM; CC50 at 3 days [2, 13]: 40.7 µM; recovery at 15 min, 5 μM [3, 9]: 66%; inhibition at 45 min, 10 μM [6]: 82%; inhibition at 30 min, 10 μM [7]: 94%
CCN(C)c1nc2ccc(C(=O)N(CC(C)C)C[C@H](O)[C@H](Cc3ccccc3)NC(=O)OCc3cncs3)cc2o1 [Compound C52, Thiazol-5-ylmethyl (2S,3S)-4-(2-(ethyl(methyl)amino)-N-isobutylbenzo[d]-oxazole-6-carboxamido)-3-hydroxy-1-phenylbutan-2-ylcarbamate] | – | – | – | – | EC50 [1, 8]: 44.7 µM; CC50 [2]: 44.7 µM; recovery at 15 min, 5 μM [3, 9]: 63%
CCN(C)c1nc2ccc(C(=O)N(CC(C)C)C[C@@H](O)[C@H](Cc3cccnc3)NC(=O)OCc3cncs3)cc2o1 [Compound C54, Thiazol-5-ylmethyl (2S,3R)-4-(2-(ethyl(methyl)amino)-N-isobutylbenzo[d]-oxazole-6-carboxamido)-3-hydroxy-1-(pyridin-3-yl)butan-2-ylcarbamate] | – | – | – | – | EC50 [1, 8]: > 100 µM; CC50 at 3 days [2, 13]: > 100 µM
CC(C)CN(C[C@@H](O)[C@H](Cc1cccnc1)NC(=O)OCc1cncs1)C(=O)c1ccc2ncsc2c1 [Compound C55, Thiazol-5-ylmethyl (2S,3R)-3-hydroxy-4-(N-isobutylbenzo[d]thiazole-6-carboxamido)-1-(pyridin-3-yl)butan-2-ylcarbamate] | – | – | – | – | EC50 [1, 8]: > 100 µM; CC50 at 3 days [2, 13]: > 100 µM

The next lines start with results.

Antiviral activity IIIB (pEC50) [1, 10] | Metabolic stability (HLM, % recovery after 15') [3, 11] [%] | Cyp450 inhibition: CDNA-CYP2C9-MFC (% inhibition) [5] [%] | Structure (SMILES) | Toxicity MT4 (pCC50) [4] | also measured
<4.00 | 57 | 29 | CCN(C)c1nc2ccc(C(=O)N(CCN(C)C)C[C@@H](O)[C@H](Cc3ccccc3)NC(=O)OCc3cncs3)cc2o1 [Compound C11] | <4.00 | –
<4.00 | 64 | 53 | CCN(C)c1nc2ccc(C(=O)N(CCN3CCOCC3)C[C@@H](O)[C@H](Cc3ccccc3)NC(=O)OCc3cncs3)cc2o1 [Compound C18] | <4.00 | –
=4.22 | 59 | 28 | CC(C)CN(C[C@@H](O)[C@H](Cc1ccccc1)NC(=O)OCc1cncs1)C(=O)c1ccc2nc(NCCCN(C)C)oc2c1 [Compound C23] | <4.00 | –
=4.32 | 67 | 97 | CCN(C)c1nc2ccc(C(=O)N(C[C@@H](O)[C@H](Cc3ccccc3)NC(=O)OCc3cncs3)CC(C)(C)C)cc2o1 [Compound C43] | =4.34 | –
=4.06 | 92 | 90 | CC(C)CN(C[C@@H](O)[C@H](Cc1ccccc1)NC(=O)OCc1cncs1)C(=O)c1ccc2nc(NCCCn3ccnc3)oc2c1 [Compound C46] | <4.00 | –
